Reference: US20030017186A1, “Carboxylic acid fluorides as pesticides” (priority 1999, published 2003)

Legend:
[1] = tested on: Broad-horned flour beetle (Gnathocerus cornutus) larvae; assay: Fumigation test in glass vessel, broad-horned flour beetle larvae; format: in vivo; conditions: GNATCO larvae; Example 3; gas 45.8 g/m^3, 17.2° C. (1st fumigation), 45.4 g/m^3, 17.7° C. (2nd); 54% rel. air humidity
Source text: (§1) a3) Broad-horned flour beetle (Gnathocerus cornutus)=GNATCO
(§2) The test organisms, separated by species, were placed into a glass vessel measuring 30 cm×30 cm×60 cm, which was sealed with a glass lid so as to be airtight. The adults and the larvae of the mealworm beetle (Tenebrio molitor) and the broad-horned flour beetle (Gnathocerus cornutus) were placed into small glass vessels approximately 5 cm in diameter, which were closed with a gauze lid and in which they could freely move about. The larvae of the rice weevil had burrowed into seeds of grain. The wood pest larvae were inserted into small blocks of wood measuring 5 cm×2.5 cm×2 cm. The openings were sealed with wads of cotton wool. Only one each of the larvae of the house longhorn beetle (Hylotrupes bajulus) was inserted into a piece of wood, while 6-8 larvae of the common furniture beetle (Anobium punctatum) were inserted into each piece of wood.
(§3) The respective gas was then introduced into the fumigation vessel through a gas line from a gas tank that contained the specified amount of gas. After a defined time period, the fumigation vessel was purged with compressed air. The discharged gas was purified by an attached gas scrubber.
(§4) The beetles were observed until they died. This point was recorded for each species. The larvae of the wood pests as well as the larvae of the rice weevil (Sitophilus oryzae) had to be picked out of the wood or the grain to check their condition. If any of the animals were still alive, the wooden test blocks remaining in the vessel were fumigated again and were reexamined after the corresponding time span had elapsed. The same number of animals in the untreated control was also checked at each point.
(§5) The vitality of the animals was checked at certain time intervals. The beetles could be observed through the fumigation vessel. This was also true for the larvae of the mealworm beetle and the broad-horned flour beetle. The wooden test blocks of the wood pest larvae were opened with hammer and chisel. Tweezers were used to pull the rice weevil larvae out of the grain seeds. The exact time intervals and the number of the evaluated pests were documented in the test results.

[2] = tested on: Saw-toothed grain beetle (Oryzaephilus surinamensis); assay: Fumigation test in glass vessel, saw-toothed grain beetles; format: in vivo; conditions: ORYZSA beetles; Example 3; gas 45.8 g/m^3, 17.2° C. (1st fumigation), 45.4 g/m^3, 17.7° C. (2nd); 54% rel. air humidity
Source text: a4) Saw-toothed grain beetle (Oryzaephilus surinamensis)=ORYZSA
as §2, §3, §4, §5

[3] = tested on: Common furniture beetle (Anobium punctatum) larvae; assay: Fumigation test in glass vessel, common furniture beetle larvae in wood blocks; format: in vivo; conditions: ANOBPU larvae in wood blocks
Source text: (§6) b2) Common furniture beetle (Anobium punctatum)=[…]
as §2, §3, §4, §5

[4] = tested on: House longhorn beetle (Hylotrupes bajulus); assay: Fumigation test in glass vessel, house longhorn beetles; format: in vivo; conditions: HYLOBA beetles
Source text: (§7) b1) House longhorn beetle (Hylotrupes bajulus)=HYLOBA
as §2, §3, §4, §5

[5] = tested on: Rice weevil (Sitophilus oryzae); assay: Fumigation test in glass vessel, rice weevils; format: in vivo; conditions: SITTOR beetles; Example 3; gas 45.8 g/m^3, 17.2° C. (1st fumigation), 45.4 g/m^3, 17.7° C. (2nd); 54% rel. air humidity
Source text: (§8) a2) Rice weevil (Sitophilus oryzae)=SITTOR
as §2, §3, §4, §5

[6] = tested on: wood pests (house longhorn beetle, common furniture beetle); assay: Fumigation test, wood pests; format: in vivo, Hylotrupes bajulus, Anobium punctatum
Source text: as §2, §3, §4, §5

[7] = tested on: Mealworm beetle (Tenebrio molitor) larvae; assay: Fumigation test in glass vessel, mealworm beetle larvae; format: in vivo; conditions: TENEMO larvae; Example 3; gas 45.8 g/m^3, 17.2° C. (1st fumigation), 45.4 g/m^3, 17.7° C. (2nd); 54% rel. air humidity
Source text: (§9) a1) Mealworm beetle (Tenebrio molitor)=TENEMO
as §2, §3, §4, §5

[8] = tested on: Broad-horned flour beetle (Gnathocerus cornutus); assay: Fumigation test in glass vessel, broad-horned flour beetles; format: in vivo; conditions: GNATCO beetles; Example 3; gas 45.8 g/m^3, 17.2° C. (1st fumigation), 45.4 g/m^3, 17.7° C. (2nd); 54% rel. air humidity
Source text: as §1, §2, §3, §4, §5

wood and storage pests = assay: Fumigation test, wood and storage pests (overall statements); format: in vivo; conditions: Conclusion of Examples 1-5
Source text: as §2, §3, §4, §5

[9] = tested on: Rice weevil (Sitophilus oryzae) larvae; assay: Fumigation test in glass vessel, rice weevil larvae in grain seeds; format: in vivo; conditions: SITTOR larvae in grain seeds; Example 3; gas 45.8 g/m^3, 17.2° C. (1st fumigation), 45.4 g/m^3, 17.7° C. (2nd); 54% rel. air humidity
Source text: as §8, §2, §3, §4, §5

[10] = tested on: Mealworm beetle (Tenebrio molitor); assay: Fumigation test in glass vessel, mealworm beetles; format: in vivo; conditions: TENEMO beetles; Example 3; gas 45.8 g/m^3, 17.2° C. (1st fumigation), 45.4 g/m^3, 17.7° C. (2nd); 54% rel. air humidity
Source text: as §9, §2, §3, §4, §5

[11] = tested on: House longhorn beetle (Hylotrupes bajulus) larvae; assay: Fumigation test in glass vessel, house longhorn beetle larvae in wood blocks; format: in vivo; conditions: HYLOBA larvae in wood blocks
Source text: as §7, §2, §3, §4, §5

[12] = tested on: Common furniture beetle (Anobium punctatum); assay: Fumigation test in glass vessel, common furniture beetles; format: in vivo; conditions: ANOBPU beetles
Source text: as §6, §2, §3, §4, §5

[13] = Example 1, gas 54.8 g/m^3, 16° C. (1st fumigation), 58.0 g/m^3, 13° C. (2nd), 66% rel. air humidity
[14] = Example 2, ventilator operation in vessel, gas 57.6 g/m^3, 20.6° C. (1st fumigation), 48.0 g/m^3, 21.5° C. (2nd)

SMILES: O=C(F)C(F)(F)F [Trifluoroacetyl Fluoride, Trifluoroacetyl fluoride]
- Number alive, 1 hr. after Start of Fumigation [1]: 0
- Number dead, 1 hr. after Start of Fumigation [1]: 15
- Number alive, 1 hr. after Start of Fumigation [2]: 0
- Number dead, 1 hr. after Start of Fumigation [2]: 15
- Number alive, 24 hrs. after Start of Fumigation [3, 13]: 10
- Number alive, 48 hrs. after Start of Fumigation [3, 13]: 6
- Number dead, 24 hrs. after Start of Fumigation [3, 13]: 0
- Number dead, 48 hrs. after Start of Fumigation [3, 13]: 4
- Number alive, 12 hrs. after Start of Fumigation [3, 14]: 11
- Number alive, 24 hrs. after Start of Fumigation [3, 14]: 10
- Number alive, 48 hrs. after Start of Fumigation [3, 14]: 0
- Number dead, 12 hrs. after Start of Fumigation [3, 14]: 1
- Number dead, 24 hrs. after Start of Fumigation [3, 14]: 2
- Number dead, 48 hrs. after Start of Fumigation [3, 14]: 12
- Number alive, 1 hr. after Start of Fumigation [4, 13]: 2
- Number alive, 3 hrs. after Start of Fumigation [4, 13]: 0
- Number dead, 1 hr. after Start of Fumigation [4, 13]: 4
- Number dead, 3 hrs. after Start of Fumigation [4, 13]: 6
- Number alive, 1 hr. after Start of Fumigation [4, 14]: 1
- Number alive, 12 hrs. after Start of Fumigation [4, 14]: 0
- Number dead, 1 hr. after Start of Fumigation [4, 14]: 5
- Number dead, 12 hrs. after Start of Fumigation [4, 14]: 6
- Number alive, 1 hr. after Start of Fumigation [5]: 0
- Number dead, 1 hr. after Start of Fumigation [5]: 20
- Time after which the animals became very active ([6]; Example 1, exposed beetles and larvae, gas 54.8 g/m^3, 16° C.): 1 to 2 min
- Time after which all the beetles lay on their backs, only legs and feelers moving slightly ([6]; Example 1, exposed beetles, gas 54.8 g/m^3, 16° C.): about 10 minutes
- Penetration of the wood to kill the larvae completely ([6]; Example 1, larvae in wooden test blocks, within a time span of 48 hours): does not penetrate the wood sufficiently
- Time after which larvae without wooden test blocks were dead ([6]; Example 1, larvae without wooden test blocks, gas 54.8 g/m^3, 16° C.): approximately 1 hour
- Effectiveness with respect to the larvae with ventilators ([6]; Example 2, air circulation through ventilators, compared with Example 1): no improvement in the effectiveness
- Number alive, 1 hr. after Start of Fumigation [7]: 0
- Number dead, 1 hr. after Start of Fumigation [7]: 15
- Number alive, 1 hr. after Start of Fumigation [8]: 0
- Number dead, 1 hr. after Start of Fumigation [8]: 15
- Effectiveness against exposed beetles and larvae (wood and storage pests): very effective
- Number alive, 1 hr. after Start of Fumigation [9]: 5
- Number alive, 3 hrs. after Start of Fumigation [9]: 0
- Number dead, 1 hr. after Start of Fumigation [9]: 15
- Number dead, 3 hrs. after Start of Fumigation [9]: 20
- Number alive, 1 hr. after Start of Fumigation [10]: 0
- Number dead, 1 hr. after Start of Fumigation [10]: 15
- Number alive, 24 hrs. after Start of Fumigation [11, 13]: 6
- Number alive, 48 hrs. after Start of Fumigation [11, 13]: 3
- Number dead, 24 hrs. after Start of Fumigation [11, 13]: 0
- Number dead, 48 hrs. after Start of Fumigation [11, 13]: 3
- Number alive, 12 hrs. after Start of Fumigation [11, 14]: 7
- Number alive, 24 hrs. after Start of Fumigation [11, 14]: 7
- Number alive, 48 hrs. after Start of Fumigation [11, 14]: 6
- Number dead, 12 hrs. after Start of Fumigation [11, 14]: 0
- Number dead, 24 hrs. after Start of Fumigation [11, 14]: 0
- Number dead, 48 hrs. after Start of Fumigation [11, 14]: 1
- Number alive, 1 hr. after Start of Fumigation [12, 13]: 0
- Number dead, 1 hr. after Start of Fumigation [12, 13]: 6
- Number alive, 1 hr. after Start of Fumigation [12, 14]: 0
- Number dead, 1 hr. after Start of Fumigation [12, 14]: 6
